Measurements: ChEMBL document CHEMBL2046376, “Synthesis and antimicrobial activity of amide derivatives of polyether antibiotic-salinomycin” (2012)

Assays:
Type in all cases: functional
[1] = system: Staphylococcus epidermidis; test: Antibacterial activity against Staphylococcus epidermidis ATCC 12228 assessed as zone of inhibition at 400 ug/disc after 18 hrs by disc diffusion method; conditions: ATCC 12228, 18 h, read-out: DIZ
[2] = system: Staphylococcus aureus; test: Antibacterial activity against Staphylococcus aureus ATCC 25923 assessed as zone of inhibition at 400 ug/disc after 18 hrs by disc diffusion method; conditions: ATCC 25923, 18 h, read-out: DIZ
[3] = system: Staphylococcus epidermidis; test: Antibacterial activity against Staphylococcus epidermidis ATCC 35984 after 18 hrs by twofold serial agar dilution technique; conditions: ATCC 35984, 18 h
[4] = system: Staphylococcus aureus; test: Antibacterial activity against Staphylococcus aureus ATCC 25923 after 18 hrs by twofold serial agar dilution technique; conditions: ATCC 25923, 18 h
[5] = system: Staphylococcus epidermidis; test: Antibacterial activity against Staphylococcus epidermidis ATCC 35984 assessed as zone of inhibition at 400 ug/disc after 18 hrs by disc diffusion method; conditions: ATCC 35984, 18 h, read-out: DIZ
[6] = system: Escherichia coli; test: Antibacterial activity against Escherichia coli ATCC 10538 after 18 hrs by twofold serial agar dilution technique; conditions: ATCC 10538, 18 h
[7] = system: Pseudomonas aeruginosa; test: Antibacterial activity against Pseudomonas aeruginosa NCTC 6749 after 18 hrs by twofold serial agar dilution technique; conditions: NCTC 6749, 18 h
[8] = system: Escherichia coli; test: Antibacterial activity against Escherichia coli NCTC 8196 assessed as zone of inhibition at 400 ug/disc after 18 hrs by disc diffusion method; conditions: NCTC 8196, 18 h, read-out: DIZ
[9] = system: Pseudomonas aeruginosa; test: Antibacterial activity against Pseudomonas aeruginosa ATCC 27853 assessed as zone of inhibition at 400 ug/disc after 18 hrs by disc diffusion method; conditions: ATCC 27853, 18 h, read-out: DIZ
[10] = system: Candida parapsilosis; test: Antifungal activity against Candida parapsilosis ATCC 22019 after 24 hrs by twofold serial agar dilution technique; conditions: Lodderomyces parapsilosis, ATCC 22019, 24 h
[11] = system: Escherichia coli; test: Antibacterial activity against Escherichia coli ATCC 10538 assessed as zone of inhibition at 400 ug/disc after 18 hrs by disc diffusion method; conditions: ATCC 10538, 18 h, read-out: DIZ
[12] = system: Proteus vulgaris; test: Antibacterial activity against Proteus vulgaris NCTC 4635 after 18 hrs by twofold serial agar dilution technique; conditions: NCTC 4635, 18 h
[13] = system: Escherichia coli; test: Antibacterial activity against Escherichia coli NCTC 8196 after 18 hrs by twofold serial agar dilution technique; conditions: NCTC 8196, 18 h
[14] = system: Pseudomonas aeruginosa; test: Antibacterial activity against Pseudomonas aeruginosa ATCC 27853 after 18 hrs by twofold serial agar dilution technique; conditions: ATCC 27853, 18 h
[15] = system: Staphylococcus aureus; test: Antibacterial activity against Staphylococcus aureus ATCC 6538 assessed as zone of inhibition at 400 ug/disc after 18 hrs by disc diffusion method; conditions: ATCC 6538, 18 h, read-out: DIZ
[16] = system: Staphylococcus aureus; test: Antibacterial activity against Staphylococcus aureus NCTC 4163 assessed as zone of inhibition at 400 ug/disc after 18 hrs by disc diffusion method; conditions: NCTC 4163, 18 h, read-out: DIZ
[17] = system: Proteus vulgaris; test: Antibacterial activity against Proteus vulgaris NCTC 4635 assessed as zone of inhibition at 400 ug/disc after 18 hrs by disc diffusion method; conditions: NCTC 4635, 18 h, read-out: DIZ
[18] = system: Pseudomonas aeruginosa; test: Antibacterial activity against Pseudomonas aeruginosa ATCC 15442 assessed as zone of inhibition at 400 ug/disc after 18 hrs by disc diffusion method; conditions: ATCC 15442, 18 h, read-out: DIZ
[19] = system: Staphylococcus aureus; test: Antibacterial activity against Staphylococcus aureus ATCC 6538 after 18 hrs by twofold serial agar dilution technique; conditions: ATCC 6538, 18 h
[20] = system: Candida albicans; test: Antifungal activity against Candida albicans ATCC 90028 after 24 hrs by twofold serial agar dilution technique; conditions: ATCC 90028, 24 h
[21] = system: Pseudomonas aeruginosa; test: Antibacterial activity against Pseudomonas aeruginosa NCTC 6749 assessed as zone of inhibition at 400 ug/disc after 18 hrs by disc diffusion method; conditions: NCTC 6749, 18 h, read-out: DIZ
[22] = system: Escherichia coli; test: Antibacterial activity against Escherichia coli ATCC 25922 after 18 hrs by twofold serial agar dilution technique; conditions: ATCC 25922, 18 h
[23] = system: Staphylococcus epidermidis; test: Antibacterial activity against Staphylococcus epidermidis ATCC 12228 after 18 hrs by twofold serial agar dilution technique; conditions: ATCC 12228, 18 h
[24] = system: Candida albicans; test: Antifungal activity against Candida albicans ATCC 10231 after 24 hrs by twofold serial agar dilution technique; conditions: ATCC 10231, 24 h
[25] = system: Escherichia coli; test: Antibacterial activity against Escherichia coli ATCC 25922 assessed as zone of inhibition at 400 ug/disc after 18 hrs by disc diffusion method; conditions: ATCC 25922, 18 h, read-out: DIZ
[26] = system: Staphylococcus aureus; test: Antibacterial activity against Staphylococcus aureus ATCC 29213 after 18 hrs by twofold serial agar dilution technique; conditions: ATCC 29213, 18 h
[27] = system: Bordetella bronchiseptica; test: Antibacterial activity against Bordetella bronchiseptica ATCC 4617 after 18 hrs by twofold serial agar dilution technique; conditions: ATCC 4617, 18 h
[28] = system: Bordetella bronchiseptica; test: Antibacterial activity against Bordetella bronchiseptica ATCC 4617 assessed as zone of inhibition at 400 ug/disc after 18 hrs by disc diffusion method; conditions: ATCC 4617, 18 h, read-out: DIZ
[29] = system: Pseudomonas aeruginosa; test: Antibacterial activity against Pseudomonas aeruginosa ATCC 15442 after 18 hrs by twofold serial agar dilution technique; conditions: ATCC 15442, 18 h
[30] = system: Staphylococcus aureus; test: Antibacterial activity against Staphylococcus aureus ATCC 29213 assessed as zone of inhibition at 400 ug/disc after 18 hrs by disc diffusion method; conditions: ATCC 29213, 18 h, read-out: DIZ
[31] = system: Staphylococcus aureus; test: Antibacterial activity against Staphylococcus aureus NCTC 4163 after 18 hrs by twofold serial agar dilution technique; conditions: NCTC 4163, 18 h

| SMILES | zone of inhibition at 400 µg/disc [1] | zone of inhibition at 400 µg/disc [2] | MIC [3] | MIC [4] | zone of inhibition at 400 µg/disc [5] | MIC [6] | MIC [7] | zone of inhibition at 400 µg/disc [8] | zone of inhibition at 400 µg/disc [9] | MIC [10] | zone of inhibition at 400 µg/disc [11] | MIC [12] | MIC [13] | MIC [14] | zone of inhibition at 400 µg/disc [15] | zone of inhibition at 400 µg/disc [16] | zone of inhibition at 400 µg/disc [17] | zone of inhibition at 400 µg/disc [18] | MIC [19] | MIC [20] | further results |
| --- | --- | --- | --- | --- | --- | --- | --- | --- | --- | --- | --- | --- | --- | --- | --- | --- | --- | --- | --- | --- | --- |
| CCCCNC(=O)[C@H](CC)[C@H]1CC[C@H](C)[C@H]([C@@H](C)[C@H](O)[C@H](C)C(=O)[C@H](CC)[C@H]2O[C@]3(C=C[C@@H](O)[C@]4(CC[C@@](C)([C@H]5CC[C@](O)(CC)[C@H](C)O5)O4)O3)[C@H](C)C[C@@H]2C)O1 | 10 mm | 10 mm | ≥ 256 µg/mL | ≥ 256 µg/mL | 10 mm | ≥ 256 µg/mL | ≥ 256 µg/mL | 10 mm | 10 mm | ≥ 256 µg/mL | 10 mm | ≥ 256 µg/mL | ≥ 256 µg/mL | ≥ 256 µg/mL | 10 mm | 10 mm | 10 mm | 10 mm | ≥ 256 µg/mL | ≥ 256 µg/mL | zone of inhibition at 400 µg/disc [21]: 10 mm; MIC [22]: ≥ 256 µg/mL; MIC [23]: ≥ 256 µg/mL; MIC [24]: ≥ 256 µg/mL; zone of inhibition at 400 µg/disc [25]: 10 mm; MIC [26]: ≥ 256 µg/mL; MIC [27]: ≥ 256 µg/mL; zone of inhibition at 400 µg/disc [28]: 10 mm; MIC [29]: ≥ 256 µg/mL; zone of inhibition at 400 µg/disc [30]: 10 mm; MIC [31]: ≥ 256 µg/mL |
| CC[C@@H](C(=O)[C@@H](C)[C@@H](O)[C@H](C)[C@@H]1O[C@@H]([C@@H](CC)C(=O)NCCOCCOCCOC)CC[C@@H]1C)[C@H]1O[C@]2(C=C[C@@H](O)[C@]3(CC[C@@](C)([C@H]4CC[C@](O)(CC)[C@H](C)O4)O3)O2)[C@H](C)C[C@@H]1C | 10 mm | 10 mm | ≥ 256 µg/mL | ≥ 256 µg/mL | 10 mm | ≥ 256 µg/mL | ≥ 256 µg/mL | 10 mm | 10 mm | ≥ 256 µg/mL | 10 mm | ≥ 256 µg/mL | ≥ 256 µg/mL | ≥ 256 µg/mL | 10 mm | 10 mm | 10 mm | 10 mm | ≥ 256 µg/mL | ≥ 256 µg/mL | zone of inhibition at 400 µg/disc [21]: 10 mm; MIC [22]: ≥ 256 µg/mL; MIC [23]: ≥ 256 µg/mL; MIC [24]: ≥ 256 µg/mL; zone of inhibition at 400 µg/disc [25]: 10 mm; MIC [26]: ≥ 256 µg/mL; MIC [27]: ≥ 256 µg/mL; zone of inhibition at 400 µg/disc [28]: 10 mm; MIC [29]: ≥ 256 µg/mL; zone of inhibition at 400 µg/disc [30]: 10 mm; MIC [31]: ≥ 256 µg/mL |
